pIC50: −log10 of the molar value.
target: T1, Epidermal growth factor receptor (Homo sapiens, UniProt P00533); assay: biochemical
T1 sequence (P00533 whole entry): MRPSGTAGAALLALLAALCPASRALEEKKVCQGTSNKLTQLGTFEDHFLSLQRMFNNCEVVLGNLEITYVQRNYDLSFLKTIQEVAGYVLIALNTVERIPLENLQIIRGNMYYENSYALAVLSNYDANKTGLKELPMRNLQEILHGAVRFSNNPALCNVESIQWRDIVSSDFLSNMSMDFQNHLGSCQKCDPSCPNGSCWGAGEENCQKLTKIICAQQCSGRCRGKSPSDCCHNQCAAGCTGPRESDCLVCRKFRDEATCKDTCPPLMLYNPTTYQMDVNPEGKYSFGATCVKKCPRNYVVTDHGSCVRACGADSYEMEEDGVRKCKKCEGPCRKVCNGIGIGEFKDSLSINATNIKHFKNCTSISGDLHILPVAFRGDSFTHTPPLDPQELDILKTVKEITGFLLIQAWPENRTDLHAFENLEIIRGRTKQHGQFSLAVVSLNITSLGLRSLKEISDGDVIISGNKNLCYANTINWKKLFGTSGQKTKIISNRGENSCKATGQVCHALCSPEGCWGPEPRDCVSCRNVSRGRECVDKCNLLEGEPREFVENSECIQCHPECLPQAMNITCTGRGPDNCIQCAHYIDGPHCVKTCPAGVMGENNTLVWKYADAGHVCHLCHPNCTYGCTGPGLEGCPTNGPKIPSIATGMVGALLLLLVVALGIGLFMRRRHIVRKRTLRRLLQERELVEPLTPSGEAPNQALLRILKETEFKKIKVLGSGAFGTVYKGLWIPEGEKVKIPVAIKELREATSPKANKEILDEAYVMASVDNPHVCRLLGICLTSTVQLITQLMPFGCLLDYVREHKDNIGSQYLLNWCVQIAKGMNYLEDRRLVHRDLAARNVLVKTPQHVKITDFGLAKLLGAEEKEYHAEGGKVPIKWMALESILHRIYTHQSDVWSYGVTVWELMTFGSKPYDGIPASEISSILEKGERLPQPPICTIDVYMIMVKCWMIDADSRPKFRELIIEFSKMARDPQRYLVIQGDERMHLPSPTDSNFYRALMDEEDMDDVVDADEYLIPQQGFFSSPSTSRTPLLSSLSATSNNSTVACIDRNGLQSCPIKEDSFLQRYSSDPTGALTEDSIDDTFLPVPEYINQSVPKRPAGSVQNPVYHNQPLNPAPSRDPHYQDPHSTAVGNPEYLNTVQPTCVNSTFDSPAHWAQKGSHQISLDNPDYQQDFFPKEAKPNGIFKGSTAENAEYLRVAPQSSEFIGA
Description: Inhibitory potency against isolated epidermal growth factor receptor (EGFR) from human A431 carcinoma cells

Row | pIC50 | SMILES
1 | 7.74 | Clc1ccc2ncnc(Nc3cccc(Br)c3)c2n1
2 | 6.16 | Fc1ccc2c(Nc3cccc(Br)c3)ncnc2n1
3 | 8.40 | CNc1ccc2cncnc2c1
4 | 8.00 | COc1ccc2cncnc2c1
5 | 6.49 | CN(C)c1ccc2c(Nc3cccc(Br)c3)ncnc2n1
6 | 8.37 | COc1ccc2ncnc(Nc3cccc(Br)c3)c2n1
7 | 7.29 | Brc1cccc(Nc2ncnc3cnccc23)c1
8 | 5.69 | c1ccc(CNc2ncnc3cnccc23)cc1
9 | 9.89 | Nc1cc2c(Nc3cccc(Br)c3)ncnc2cn1
10 | 7.52 | COc1ccc2ncncc2c1
11 | 7.46 | Brc1cccc(Nc2ncnc3ccncc23)c1
12 | 7.96 | CN(C)c1ccc2cncnc2c1
13 | 9.10 | Nc1ccc2ncncc2c1
14 | 6.22 | c1ccc(CNc2ncnc3cccnc23)cc1
15 | 8.15 | CNc1ccc2ncncc2c1
16 | 8.05 | CNc1cc2c(Nc3ccccc3)ncnc2cn1
17 | < 5.00 | c1ccc(CNc2ncnc3ncccc23)cc1
18 | 6.16 | Brc1cccc(Nc2ncnc3ncccc23)c1
19 | 5.84 | c1ccc(CNc2ncnc3ccncc23)cc1
20 | 7.36 | Fc1ccc2ncnc(Nc3cccc(Br)c3)c2n1
21 | 7.47 | Brc1cccc(Nc2ncnc3cccnc23)c1
22 | 6.92 | CN(C)c1ccc2ncncc2c1
23 | 7.57 | c1ccc2ncncc2c1 [QUINAZOLINE]

Row | SMILES | pIC50
24 | CNC1=CC2N=CN(C)/C(=N\c3cccc(Br)c3)C2C=N1 (configuration not stated) | 8.51
25 | COc1ccc(CNc2cc3c(Nc4cccc(Br)c4)ncnc3cn2)cc1 | 8.64
26 | Nc1ccc2cncnc2c1 | 10.00

target: T1, Epidermal growth factor receptor; assay: Inhibition of Epidermal growth factor receptor autophosphorylation in A431 human epidermoid carcinoma cells

Row | pIC50 | SMILES
27 | 5.68 | Nc1cc2ncnc(NCc3ccccc3)c2cn1
28 | 5.64 | CN(C)c1ccc2c(Nc3cccc(Br)c3)ncnc2n1
29 | 7.80 | Nc1cc2c(Nc3cccc(Br)c3)ncnc2cn1
30 | 7.85 | CN(C)c1cc2ncnc(Nc3cccc(Br)c3)c2cn1
31 | 7.82 | CNc1cc2c(Nc3cccc(Br)c3)ncnc2cn1
32 | 7.80 | CNc1cc2ncnc(Nc3cccc(Br)c3)c2cn1

Reference: ChEMBL document CHEMBL1129564, “Tyrosine kinase inhibitors. 10. Isomeric 4-[(3-bromophenyl)amino]pyrido[d]-pyrimidines are potent ATP binding site inhibitors of the tyrosine kinase function of the epidermal growth factor receptor” (J Med Chem, 1996)
